Among the data in BindingDB's records for doi:10.1016/0960-894X(96)00018-2 (1996) are IC50 values, retold here.

One may read the IC50 as the midpoint of a concentration-inhibition curve. Lower therefore signals higher potency.

This assay concerns the target T1, Prostatic acid phosphatase (Homo sapiens, UniProt P15309).
T1 sequence (P15309 whole entry): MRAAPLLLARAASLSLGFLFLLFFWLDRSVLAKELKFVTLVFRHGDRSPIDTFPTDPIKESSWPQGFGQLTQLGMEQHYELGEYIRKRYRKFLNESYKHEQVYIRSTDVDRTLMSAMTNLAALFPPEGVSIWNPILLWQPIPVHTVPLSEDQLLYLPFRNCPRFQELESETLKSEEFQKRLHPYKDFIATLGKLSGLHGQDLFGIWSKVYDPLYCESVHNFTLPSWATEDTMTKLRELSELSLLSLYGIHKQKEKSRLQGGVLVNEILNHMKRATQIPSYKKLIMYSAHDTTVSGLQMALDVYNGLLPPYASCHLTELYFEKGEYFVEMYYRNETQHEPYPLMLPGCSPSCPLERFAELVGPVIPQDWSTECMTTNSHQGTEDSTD
Nature of the assay: ChEBML_158626. The procedure:
Inhibition of human prostatic acid phosphatase was determined as inhibition of the hydrolysis of tyrosine phosphate

Bounds are passed on as bounds.

With `OP(O)(O)=c1c2ccccc2ccc2ccccc12` [(5H-Dibenzo[a,d]cyclohepten-5-yl)-phosphonic acid], the half-inhibitory concentration (IC50) is greater than 100 µM. Then `OP(O)(O)=c1c2ccccc2sc2ccccc12` [(9H-Thioxanthen-9-yl)-phosphonic acid], with greater than 100 µM.
